According to patent US11147272B2, “Pyridone compounds and agricultural and horticultural fungicides comprising the same as active ingredients” (MITSUI CHEMICALS AGRO, INC., priority 2017, dated 2021):

Legend:
Magnaporthe grisea = assay: whole plant or invertebrate; format: in vivo; details: Blast on rice; class of control value
Alternaia brassicicola = assay: Test Example C: Alternaria sooty spot on cabbage; format: in vivo; details: Alternaria sooty spot on cabbage; class of control value
Source text: Seeds of a test plant (cabbage variety: Shikidori) were planted and cultivated until the cotyledons extended.
<Control Value> Control value=100{1−(n/3)}

Puccinia recondita = assay: Test Example E: Brown rust on wheat; format: in vivo; details: Brown rust on wheat; class of control value
Phytophthora infestans = assay: whole plant or invertebrate; format: in vivo; details: Late blight on tomato; class of control value
Botrytis cinerea = assay: Test Example B: Gray mold on tomato; details: Gray mold on tomato; class of control value
Plasmopara viticola = assay: Test Example G: Downy mildew on vine; details: Downy mildew on vine (Neomuscat); 250 ppm spray, 2.5 ml/pot; assessed 7 to 10 days after inoculation
[1] = system: Colletotrichum orbiculare; assay: Test Example H: Anthracnose on cucumber; details: Anthracnose on cucumber (Sagami Hanjiro); 250 ppm spray, 2.5 ml/pot; assessed 6 to 10 days after inoculation
[2] = system: Blumeria graminis f. sp. hordei; assay: Test Example D: Powdery mildew on barley; details: Powdery mildew on barley; class of control value

SMILES | Test A control value class (Magnaporthe grisea) | Test C control value class (Alternaia brassicicola) | Test E control value class (Puccinia recondita) | Test F control value class (Phytophthora infestans) | Test B control value class (Botrytis cinerea) | Test G control value class (Plasmopara viticola) | Test H control value class [1] | Test D control value class [2]
CCOc1cc(F)c(-c2c(C(C)(C)C)cc(Cl)c(=O)n2CC)c(F)c1 [compound 75] | L (50% or less control value) | H (more than 50% control value) | H (more than 50% control value) | L (50% or less control value) | H (more than 50% control value) | L (50% or less control value) | H (more than 50% control value) | L (50% or less control value)
CCn1c(-c2c(F)cc(OC)cc2F)c(C(C)(C)C)cc(Br)c1=O [compound 76] | H (more than 50% control value) | H (more than 50% control value) | H (more than 50% control value) | L (50% or less control value) | H (more than 50% control value) | L (50% or less control value) | H (more than 50% control value) | L (50% or less control value)
Cn1c(-c2c(F)cc(F)cc2F)c(C(C)(C)C)cc(Cl)c1=O [compound 77] | L (50% or less control value) | H (more than 50% control value) | H (more than 50% control value) | L (50% or less control value) | H (more than 50% control value) | L (50% or less control value) | L (50% or less control value) | H (more than 50% control value)
Cn1c(-c2c(F)cc(F)cc2F)c(C(C)(C)C)cc(Br)c1=O [compound 78] | H (more than 50% control value) | H (more than 50% control value) | H (more than 50% control value) | L (50% or less control value) | H (more than 50% control value) | L (50% or less control value) | H (more than 50% control value) | H (more than 50% control value)
COc1cc(F)c(-c2c(C(C)(C)C)cc(Cl)c(=O)n2C)c(F)c1 [compound 79] | H (more than 50% control value) | H (more than 50% control value) | H (more than 50% control value) | L (50% or less control value) | H (more than 50% control value) | L (50% or less control value) | H (more than 50% control value) | H (more than 50% control value)
CCn1c(-c2c(F)cccc2F)c(CN(C)C(C)C)cc(Cl)c1=O [compound 80] | L (50% or less control value) | L (50% or less control value) | L (50% or less control value) | H (more than 50% control value) | H (more than 50% control value) | L (50% or less control value) | H (more than 50% control value) | L (50% or less control value)
CCn1c(-c2c(F)cc(F)cc2F)c(C(OC)N(C)C(C)C)cc(Cl)c1=O (stereo not shown) [compound 81] | H (more than 50% control value) | L (50% or less control value) | L (50% or less control value) | L (50% or less control value) | H (more than 50% control value) | L (50% or less control value) | L (50% or less control value) | L (50% or less control value)
COc1cc(F)c(-c2c(C(C)(C)C)cc(Br)c(=O)n2C)c(F)c1 [compound 82] | L (50% or less control value) | H (more than 50% control value) | H (more than 50% control value) | L (50% or less control value) | H (more than 50% control value) | H (more than 50% control value) | H (more than 50% control value) | L (50% or less control value)
CCn1c(-c2c(F)cc(OCCOC)cc2F)c(C(C)(C)C)cc(Cl)c1=O [compound 83] | H (more than 50% control value) | H (more than 50% control value) | H (more than 50% control value) | L (50% or less control value) | H (more than 50% control value) | H (more than 50% control value) | H (more than 50% control value) | L (50% or less control value)
COCCOc1cc(F)c(-c2c(C(C)(C)C)cc(Cl)c(=O)n2C)c(F)c1 [compound 84] | L (50% or less control value) | H (more than 50% control value) | L (50% or less control value) | L (50% or less control value) | L (50% or less control value) | L (50% or less control value) | H (more than 50% control value) | L (50% or less control value)
COc1cc(F)c(-c2c(C(C)(C)C)cc(Cl)c(=O)n2C)c(F)c1 [compound 85] | H (more than 50% control value) | H (more than 50% control value) | H (more than 50% control value) | L (50% or less control value) | H (more than 50% control value) | L (50% or less control value) | H (more than 50% control value) | L (50% or less control value)
CCn1c(-c2c(F)cc(F)cc2F)c(CN(C)C(C)C)cc(Cl)c1=O [compound 86] | L (50% or less control value) | H (more than 50% control value) | L (50% or less control value) | L (50% or less control value) | L (50% or less control value) | L (50% or less control value) | L (50% or less control value) | L (50% or less control value)
CCn1c(-c2c(F)cc(OC)cc2F)c(C(CC(C)C)OC)cc(Cl)c1=O (stereo not shown) [compound 87] | L (50% or less control value) | H (more than 50% control value) | H (more than 50% control value) | L (50% or less control value) | H (more than 50% control value) | L (50% or less control value) | H (more than 50% control value) | H (more than 50% control value)
CCn1c(-c2c(F)cc(OC)cc2F)c(CN(C)C(C)C)cc(Cl)c1=O [compound 88] | L (50% or less control value) | H (more than 50% control value) | H (more than 50% control value) | L (50% or less control value) | H (more than 50% control value) | L (50% or less control value) | L (50% or less control value) | H (more than 50% control value)
